Data from patent EP4818187A1, “COMPOUND AND USE THEREOF” (Ganzhou Hemay Pharmaceutical, Co., Ltd, priority 2023, dated 2025).
pIC50: −log10 of the molar value. Marks after values point to notes of the source that are not given here.

Experiments:
[1] = tested on: BxPC-3 (human pancreatic cancer in situ); assay: In vitro inhibitory effect against human tumor cells (MTT or SRB); type: cell-based; details: BXPC-3, 72 h, BxPC-3, test method printed MTT (head: SRB), 3 days
Method: (§1) Cells were cultured with 5% CO2 at 37°C and saturated humidity until they reached a logarithmic growth phase (usually adherent cells were nearly fully confluent). After removing adherent cells by trypsin/EDTA digestion, the cells were collected for subsequent experiments.
(§2) The cells were inoculated into a 96-well cell culture plate (hereinafter referred to as the 96-well plate) based on the cell count shown in Table 2, cultured overnight to achieve cell adherence, and then, after different concentrations of the test compound were added, further cultured for a total of 3 days. Finally, the total cell protein in the assay wells was assayed by SRB, or the cell viability was assessed by MTT:
(§3) 2.1 Assaying total cell protein by SRB: the modification is based on the method in the literature (V. Vichai and K. Kirtikara. Sulforhodamine B colorimetric assay for cytotoxicity screening. Nature Protocols. 2006, 1: 1112-1116). Specific method: the culture medium was pipetted out from the wells, the cells were fixed with 10% trichloroacetic acid for more than 1 h, and trichloroacetic acid was removed; the cells were washed with H2O, and stained with 0.4% SRB for 15-30 min; after excess SRB was removed, the cells were washed with 1% acetic acid; 100 µl of 10 mM tris(trihydroxymethylaminomethane) was added to dissolve the protein-bound SRB, followed by assay at a wavelength of 570 nm.
(§4) 2.2 Assaying cell viability by MTT: the modification is based on the method in the literature (J. Carmichael, W. DeGraff, A. Gazdar et al., Evaluation of a tetrazolium-based semiautomated colorimetric assay: assessment of chemosensitivity testing. Cancer Research. 1987, 47: 936-942). Specific method: For well-adherent cells: the medium was pipetted out, 100 µL of a basal medium containing 0.5 mg/mL MTT (medium free of fetal bovine serum (FBS) and other additives) was added to each well, and culture was continued for additional 3 h. The MTT-containing basal medium was pipetted out, and 100 µL of DMSO was added to each well to dissolve formazan, followed by assay at a wavelength of 490 nm.
(§5) For poorly-adherent cells: MTT solution was directly added to a concentration of 0.5 mg/mL, culture was continued for additional 3 h, and an equal volume of triple solvent was added to the system to dissolve formazan, followed by assay at a wavelength of 570 nm.
(§6) 2.3: 1-2 mg of β-glucuronidase was weighed, and dissolved in PBS to prepare 2 mg/mL stock solution. Prior to use, the stock solution was diluted with a complete medium to prepare 12.5 µg/mL enzyme working solution. For assay wells requiring the enzyme, 80 µL of the enzyme working solution was added, with the β-glucuronidase at a concentration of 1 µg/well; and for assay wells not requiring the enzyme, 80 µL of the complete medium was added.
(§7) 1-3 mg of the test compound was weighed, and dissolved in DMSO to prepare 20 mM stock solution. The stock solution was diluted in a 3-fold gradient with DMSO, then diluted 100-fold with RPMI1640 basal medium to obtain 10× working solutions, with a total of 8 concentrations. 20 µL of the 10× working solutions were add to the assay wells, with the final volume of each well of 200 µL, and with the DMSO at a concentration of 0.1%.
(§8) 2.4 Calculation of inhibitory activity of compound: the experiment includes a compound test group, a compound-free positive solvent control group (PC), and a negative solvent control group (NC) without cells and the compound. Inhibition rate = [1−(testvalue−NCmean)/(PCmean−NCmean)] × 100% [formula]
(§9) The mean and SD of the inhibition rate were obtained from replicate assay wells. A curve was plotted with the compound concentrations distributed in a logarithmic form as the abscissa and with the mean inhibition rates as the ordinate, and was fitted with a 4-parameter logistic equation. The compound concentration corresponding to 50% inhibition rate on the curve is the IC50 value. Table 2: Culture medium formulation and cell inoculation concentration for human tumor cell lines

[2] = tested on: MDA-MB-468 (human triple-negative breast cancer); assay: In vitro inhibitory effect against human tumor cells (SRB); type: cell-based; details: MDA-MB-468, 72 h, MDA-MB-468, SRB, 3 days
Method: as §1, §2, §3, §6, §7, §8, §9

[3] = tested on: Fadu (human pharyngeal squamous cell carcinoma); assay: In vitro inhibitory effect against human tumor cells (MTT); type: cell-based; details: 72 h, 3 days
Method: as §1, §2, §4, §5, §6, §7, §8, §9

[4] = tested on: human ovarian cancer SK-OV-3; assay: Biological Example 5: in vivo xenograft model of human ovarian cancer SK-OV-3; design: species or system Balb/c-nu nude mice; details: SK-OV-3 xenograft, nude mice; for Final body weight change (%) / Maximum body weight change (%) / Relative volume RTV (x±S.D.) / T/C (%) / Tumor inhibition rate (%) / Tumor weight (g, x±S.D.) / Body weight (g, x±S.D.) End / Body weight (g, x±S.D.) Start: 0.8 mg/kg i.v. qw×3
[5] = tested on: A375 (human malignant melanoma); assay: In vitro inhibitory effect against human tumor cells (SRB); type: cell-based; details: A-375, 72 h, 3 days
Method: as §1, §2, §3, §6, §7, §8, §9

[6] = tested on: 22RV1 (human prostate cancer); assay: as above; type: cell-based; details: 22Rv1, 72 h, 22RV1, SRB, 3 days
Method: as §1, §2, §3, §6, §7, §8, §9

[7] = tested on: HepG2 (human liver cancer cell); assay: as above; type: cell-based; details: HepG2, 72 h, 3 days
Method: as §1, §2, §3, §6, §7, §8, §9

[8] = tested on: NCI-H1975 (human non-small cell lung cancer); assay: In vitro inhibitory effect against human tumor cells (MTT); type: cell-based; details: NCI-H1975, 72 h, 3 days
Method: as §1, §2, §4, §5, §6, §7, §8, §9

[9] = tested on: SK-OV-3 (human ovarian cancer); assay: as above; type: cell-based; details: SK-OV-3, 72 h, SK-OV-3, MTT, 3 days
Method: as §1, §2, §4, §5, §6, §7, §8, §9

[10] = tested on: HCT116 (human colorectal cancer); assay: as above; type: cell-based; details: HCT-116, 72 h, 3 days
Method: as §1, §2, §4, §5, §6, §7, §8, §9

[11] = tested on: human non-small cell lung cancer NCI-H1975; assay: Biological Example 9: in vivo xenograft model of human non-small cell lung cancer NCI-H1975; design: species or system Balb/c-nu nude mice; details: nude mice
[12] = tested on: human non-small cell lung cancer NCI-H1975; assay: Biological Example 7: in vivo xenograft model of human non-small cell lung cancer NCI-H1975; design: species or system Balb/c-nu nude mice; details: nude mice
[13] = tested on: human non-small cell lung cancer NCI-H1975; assay: Biological Example 10: in vivo xenograft model of human non-small cell lung cancer NCI-H1975; design: species or system Balb/c-nu nude mice; details: nude mice
[14] = With addition of βGU (1 µg/well)

SMILES	pIC50 [1, 14]	pIC50 ([1]; βGU-free)	pIC50 [3, 14]	pIC50 ([3]; βGU-free)	Final body weight change (%) [4] [%]	Maximum body weight change (%) [4]	Relative volume RTV (x±S.D.) [4]	T/C (%) [4] [%]	Tumor inhibition rate (%) [4] [%]	Tumor weight (g, x±S.D.) [4] [g]	Body weight (g, x±S.D.) End [4] [g]	Body weight (g, x±S.D.) Start [4] [g]	pIC50 [5, 14]	pIC50 ([5]; βGU-free)	pIC50 [6, 14]	pIC50 ([6]; βGU-free)	pIC50 [7, 14]	pIC50 ([7]; βGU-free)	pIC50 [8, 14]	pIC50 ([8]; βGU-free)	further results
CC[C@H](C)[C@@H]([C@@H](CC(=O)N1CCC[C@H]1[C@H](OC)[C@@H](C)C(=O)N[C@H](C)[C@@H](O)c1ccccc1)OC)N(C)C(=O)[C@@H](NC(=O)[C@H](C(C)C)N(C)Cc1ccc(O[C@@H]2O[C@H](C(=O)O)[C@@H](O)[C@H](O)[C@H]2O)cc1OCc1cn(CCCCCC(=O)Nc2ccc(-c3ccc(/N=N/c4ccc5c(S(=O)(=O)O)cc(S(=O)(=O)O)c(N)c5c4O)c(C)c3)cc2C)nn1)C(C)C [Example compound 3]	8.01	6.97	8.11	6.80																	pIC50 [2, 14]: 9.11; pIC50 ([2]; βGU-free): 7.30
CC[C@H](C)[C@@H]([C@@H](CC(=O)N1CCC[C@H]1[C@H](OC)[C@@H](C)C(=O)N[C@H](C)[C@@H](O)c1ccccc1)OC)N(C)C(=O)[C@@H](NC(=O)[C@H](C(C)C)[N+](C)(CC)Cc1ccc(O[C@@H]2O[C@H](C(=O)[O-])[C@@H](O)[C@H](O)[C@H]2O)cc1OCc1cn(CCOCCC(=O)Nc2ccc(-c3ccc(/N=N/c4ccc5c(S(=O)(=O)[O-])cc(S(=O)(=O)[O-])c(N)c5c4O)c(C)c3)cc2C)nn1)C(C)C.[Na+].[Na+] (stereo partly shown) [Example compound 8]	9.27	7.68	9.10	7.72	4.6	4.6, d21%	0.08±0.02	0.7	99.7	0.005 ± 0.003	24.1 ± 1.6	22.9 ± 1.6	8.62	7.37	8.52	7.20	8.40	7.07	8.47	7.14	Animal death ([4]; 0.8 mg/kg i.v. qw×3, group G5, stated to be independent of drug administration (biting and fighting injury)): One animal in group G5 died on day 18; pIC50 [9, 14]: 8.59; pIC50 ([9]; βGU-free): 7.21; pIC50 [10, 14]: 8.68; pIC50 ([10]; βGU-free): 7.29; Final body weight change (%) ([11]; 0.8 mg/kg i.v. qw×3): 4%; Maximum body weight change (%) ([11]; 0.8 mg/kg i.v. qw×3): 4.3, d17%; Relative volume RTV (x±S.D.) ([11]; 0.8 mg/kg i.v. qw×3): 0.19±0.27; T/C (%) ([11]; 0.8 mg/kg i.v. qw×3): 2.5%; Tumor inhibition rate (%) ([11]; 0.8 mg/kg i.v. qw×3): 98.3%; Tumor weight (g, x±S.D.) ([11]; 0.8 mg/kg i.v. qw×3): 0.022±0.038* * g; Body weight (g, x±S.D.) End 24d ([11]; 0.8 mg/kg i.v. qw×3, End 24d): 26.3 ± 1.5 g; Body weight (g, x±S.D.) Start ([11]; 0.8 mg/kg i.v. qw×3, Start): 25.3 ± 1.1 g
CC[C@H](C)[C@@H]([C@@H](CC(=O)N1CCC[C@H]1[C@H](OC)[C@@H](C)C(=O)N[C@H](C)[C@@H](O)c1ccccc1)OC)N(C)C(=O)[C@@H](NC(=O)[C@H](C(C)C)[N+](C)(CC)Cc1ccc(O[C@@H]2O[C@H](C(=O)[O-])[C@@H](O)[C@H](O)[C@H]2O)cc1OCc1cn(CCCCCC(=O)Nc2ccc(-c3ccc(/N=N/c4ccc5c(S(=O)(=O)[O-])cc(S(=O)(=O)[O-])c(N)c5c4O)c(C)c3)cc2C)nn1)C(C)C.[Na+].[Na+] (stereo partly shown) [Example compound 12]	9.28	7.55	9.68	7.44	4.4	4.4, d21%	0.07±0.04	0.6	99.7	0.005 ± 0.001	25.1 ± 1.4	24.1 ± 1.2	9.00	7.30	8.60	7.11	8.52	6.97	8.92	7.13	Final body weight change (%) ([12]; 0.8 mg/kg i.v. qw×3): 5.8%; Maximum body weight change (%) ([12]; 0.8 mg/kg i.v. qw×3): 5.8, d21%; Relative volume RTV (x±S.D.) ([12]; 0.8 mg/kg i.v. qw×3): 0.46±0.35; T/C (%) ([12]; 0.8 mg/kg i.v. qw×3): 3.2%; Tumor inhibition rate (%) ([12]; 0.8 mg/kg i.v. qw×3): 97.8%; Tumor weight (g, x±S.D.) ([12]; 0.8 mg/kg i.v. qw×3): 0.039 ± 0.039 g; Body weight (g, x±S.D.) End ([12]; 0.8 mg/kg i.v. qw×3, End): 25.6 ± 2.4 g; Body weight (g, x±S.D.) Start ([12]; 0.8 mg/kg i.v. qw×3, Start): 24.1 ± 1.6 g; pIC50 [9, 14]: 8.96; pIC50 ([9]; βGU-free): 7.43; pIC50 [10, 14]: 8.80; pIC50 ([10]; βGU-free): 7.08; Final body weight change (%) ([13]; 0.4 mg/kg i.v. qw×2): 5.7%; Maximum body weight change (%) ([13]; 0.4 mg/kg i.v. qw×2): 5.7, d28%; Relative volume RTV (x±S.D.) ([13]; 0.4 mg/kg i.v. qw×2): 0.44±0.06; T/C (%) ([13]; 0.4 mg/kg i.v. qw×2): 8.8%; Tumor inhibition rate (%) ([13]; 0.4 mg/kg i.v. qw×2): 92.1%; Tumor weight (g, x±S.D.) ([13]; 0.4 mg/kg i.v. qw×2): 0.086 ± 0.009 g; Body weight (g, x±S.D.) End 24d ([13]; 0.4 mg/kg i.v. qw×2, End 24d): 23.1 ± 0.7 g; Body weight (g, x±S.D.) Start ([13]; 0.4 mg/kg i.v. qw×2, Start): 21.8 ± 0.6 g
